Assay results: US20230293644A1, “ANTI-INFLAMMATORY PEPTIDES AND COMPOSITION COMPRISING THE SAME” (Gemvax & KAEL Co., Ltd., priority 2012, published 2023)

Experiments:
TNF-α [1] = assay: Screening of TNF-α level in PMA-differentiated THP-1 cell line after LPS; type: cell-based, human; details: 1 µM peptide, one hour; LPS 10 ng/ml
Experimental: Experiment was carried out using THP-1 cell line (American Type Culture Collection (ATCC), Manassas, VA, USA) which is human acute monocytic leukemia.
THP-1 cells were incubated to reach the number of 1 × 10^5 cells per well in a 96-well plate with RPMI 1640 medium for 24 hrs, followed by addition of 100 uM of PMA (phorbol 12-myristate 13-acetate) for the differentiation into macrophage. After differentiation of THP-1 into macrophage by PMA for a day, LPS was treated for 2 hrs and washed off. Starvation for an hour and PEP1 treatment followed.
THP-1 cell differentiated by PMA was treated with LPS (lipopolysaccharide; 10 ng/ml, Sigma) for 2 hours, followed by 2 times washes with PBS. To the cells, OPTI-MEM culture medium was added to induce cell starvation for an hour, and 1 µM of 179 peptides was taken out and incubated for an hour. After incubation, TNF-α level was measured by using the ELISA kit and the peptides which reduce the TNF-α level were screened (FIG. 24 to FIG. 46).

TNF-α [2] = assay: Screening of TNF-α inhibitory effect, LPS-stimulated PBMC-derived monocytes (Example 2); type: cell-based, human; details: 4 uM peptide, 2 hrs, LPS 10 ng/ml; for TNF-α inhibiting effect compared to the group treated with LPS and estrogen: estrogen 20 nM
Experimental: PBMC (peripheral blood mononuclear cells) layer was separated from blood samples (50 ml) collected in healthy subjects using Biocoll Separating Solution (Biochrom AG, Berlin, Germany). The collected PBMC were enriched in RPMI 1640 medium containing 20% human serum for 30 mins, and then transferred to 100-mm polystyeren cell culture plate coated with human serum for incubation for 2 hrs at 37° C., 5% CO^2 incubator. Monocytes were detached from the bottom of the plate using cold PBS, and incubated to reach the number of 1 × 10^5 cell/well in 96-well plate with RPMI 1640 medium (supplemented with penicillinstreptomycin; […], human serum; 20%) over night.
ELISA was performed to find out how the peptides of the PEP RIA series influence TNF-α level. PBMC-derived monocytes were incubated to reach the number of 1 × 10^5 cells per well in a 96-well plate and then treated with LPS (lipopolysaccharide; 10 ng/ml, Sigma) for 2 hours. To the monocytes that were washed three times with PBS, OPTI-MEM culture medium was added to induce cell starvation for an hour, 4 µM of the peptide was taken out and incubated for 2 hours. There were three negative control groups. The first group was not treated with anything. The second group that was treated with estrogen (in this experiment, estradiol was used as a kind of estrogen). The third group was treated with LPS (10 ng/ml) or with LPS (10 ng/ml) as well as estrogen (20 nM). PEP1 that was confirmed to have TNF-α inhibiting activity was used as a positive control to measure TNF-α inhibiting activity. After incubation, TNF-α was measured by following the ELISA kit manual (R&D, Minneapolis, MN, USA). The details of quantification method can be found in Experiment 2.2 of Example 1.
Using the method stated above, Peptides with TNF-α inhibiting effect were screened. PBMC-derived monocytes were stimulated with LPS (10 ng/ml), which is endotoxin, for 2 hours and were induced to starve by adding OPTI-MEM for 1 hour. After that, 4 uM of 179 peptides were treated and incubated for 2 hrs. The amount of TNF-α in the cell culture medium was measured using ELISA, and the peptides with TNF-α inhibiting effect were screened by comparing to the negative and positive controls (FIG. 3 to FIG. 23).

Substance | TNF-α level compared to control group treated only with LPS (TNF-α [1]) | expression level of TNF-α compared to group treated with LPS and estrogen (TNF-α [1]) | TNF-α inhibiting effect compared to the control group treated with only LPS (TNF-α [2]) | TNF-α inhibiting effect compared to the group treated with LPS and estrogen (TNF-α [2])
ALLTSRLR (listed as Homo sapiens) [SEQ ID NO: 107] | reduce the TNF- α level | – | – | –
EARPALLTSRLRFIP (listed as Homo sapiens) [SEQ ID NO: 78] | reduce the TNF- α level | – | – | –
EARPALLTSRLRFIPKPDGLRPIVNMDY (listed as Homo sapiens) [SEQ ID NO: 75] | reduce the TNF- α level | – | – | –
EVRQHREARPALLTSRLRFIPK (listed as Homo sapiens) [SEQ ID NO: 7] | reduce the TNF- α level | – | – | –
EVRQHREARPALLTSRLRFIPKP (listed as Homo sapiens) [SEQ ID NO: 41] | – | reduce the expression level of TNF-α | – | –
FIP [SEQ ID NO: 179] | reduce the TNF- α level | – | – | –
HREARPALLTSRLRFIPK (listed as Homo sapiens) [SEQ ID NO: 3] | – | reduce the expression level of TNF-α | – | –
SEAEVRQHREARPALLTSRLRFIPK (listed as Homo sapiens) [SEQ ID NO: 10] | – | – | showed TNF-α inhibiting effect | showed TNF-α inhibiting effect
SRLR (listed as Homo sapiens) [SEQ ID NO: 168] | – | – | showed TNF-α inhibiting effect | –
SRLRF (listed as Homo sapiens) [SEQ ID NO: 167] | – | – | showed TNF-α inhibiting effect | showed TNF-α inhibiting effect
SRLRFI (listed as Homo sapiens) [SEQ ID NO: 166] | – | – | showed TNF-α inhibiting effect | showed TNF-α inhibiting effect
SRLRFIP (listed as Homo sapiens) [SEQ ID NO: 165] | – | – | showed TNF-α inhibiting effect | showed TNF-α inhibiting effect
SRLRFIPK (listed as Homo sapiens) [SEQ ID NO: 98] | – | – | showed TNF-α inhibiting effect | showed TNF-α inhibiting effect
TSR [SEQ ID NO: 164] | – | – | showed TNF-α inhibiting effect | showed TNF-α inhibiting effect
TSRLRFIP (listed as Homo sapiens) [SEQ ID NO: 159] | – | – | showed TNF-α inhibiting effect | –
TSRLRFIPK (listed as Homo sapiens) [SEQ ID NO: 97] | – | – | showed TNF-α inhibiting effect | showed TNF-α inhibiting effect
VRQHREARPALLTSRLRFIPKPD (listed as Homo sapiens) [SEQ ID NO: 33] | – | – | showed TNF-α inhibiting effect | showed TNF-α inhibiting effect
VRQHREARPALLTSRLRFIPKPDG (listed as Homo sapiens) [SEQ ID NO: 34] | – | – | showed TNF-α inhibiting effect | showed TNF-α inhibiting effect
VRQHREARPALLTSRLRFIPKPDGL (listed as Homo sapiens) [SEQ ID NO: 35] | – | – | showed TNF-α inhibiting effect | –
